For one series, the system named is NCI-H716 cells. Briefly: Cell viability assay on NCI-H716 (CCK-8). The class given is cell-based. Conditions: Homo sapiens, 72 h incubation, read-out: IC50 on inhibition of NCI-H716 cells viability. The procedure:
NCI-H716: human cecum colorectal adenocarcinoma cell line, purchased from ATCC (American Type Culture Collection).
Culture medium: RPMI 1640 containing 10% FBS.
NCI-H716 cells were diluted with RPMI-1640 medium containing 10% FBS. 90 μL of the diluted cells were added into each well of a 96-well plate so that each well contained 1×10^4 cells. The cells were subsequently incubated at 37° C., 5% CO2 overnight.
Test compound dissolved in DMSO was diluted to 30, 10, 3.33, 1.11, 0.37, 0.12, 0.04, 0.01 μM with serum free RPMI-1640 medium containing 5% DMSO. Then 10 μL of the diluted compound was added into the above 90 μL cell cultures (final concentration of DMSO in the reaction mixture should be 0.5%), and incubated at 37° C., 5% CO2 for 72 h.
10 μL of CCK-8 solution was added into cells, and incubated at 37° C., 5% CO2 for additional 1 h. The optical density of each well was measured at 450 nm and 630 nm, respectively, by Labsystems Multiskan K3.
[formula] • [OD compound]450-630: the optical density of well containing cells with compound treatment; • [OD cell]450-630: the optical density of wells containing cells without compound treatment; • [OD background]450-630: the optical density of wells containing culture medium only.
IC50: IC50 is calculated based on the inhibition curve fitted by XL-Fit 2.0 software.

For another series, the system named is NCI-H716 tumor. Kind of series: Anti-tumor efficacy in NCI-H716 subcutaneous xenograft model. The series is classed as in vivo. As to conditions: three weeks. On the procedure: NCI-H716 cell line was purchased from ATCC (CCL-251™) and incubated in the medium of RPM11640 (Rosewell Park Memorial Institute 1640) plus 10% fetal bovine serum (FBS) at 37° C. in a 5% CO2 incubator.
BALB/c athymic male mice (6-8 weeks) were purchased from Shanghai SLAC Laboratory Animal Co. Ltd. The mice were housed under specific pathogen free conditions. They were maintained in a 12 hour light and dark cycle with the temperature at 20-25° C. and humidity of 40%-70% and given free access to Co^60 radiated-sterile diet and autoclaved sterile water. There were four mice in each cage.
Compound A was dissolved in 0.5% CMC-Na, vortexed for 1-3 min, sonicated for 15 min and stored at 4° C. Compound A was formulated at 2.0, 4.0 and 8.0 mg/mL and prepared once a week.
When NCI-H716 cells reached about 80-90% in confluence, they were detached by Trypsin-EDTA and collected after centrifugation, then suspended in serum free-medium. Each mouse was injected subcutaneously in the right lateral flank with 0.2 mL of cells suspension containing 5×10^6 tumor cells with Martrigel (1:1).
When the NCI-H716 tumors grew to around average 300 mm^3, the tumor bearing mice were randomized to vehicle and Compound A treated groups. Compound A in 0.5% CMC-Na as prepared above was orally administered to mice at 20, 40 and 80 mg/kg twice daily for three weeks, and the vehicle group received 0.5% CMC-Na orally twice daily. The dosing volume was 10 mL/kg body weight. Tumor volume (TV) was measured two times per week by caliper for length and width, and calculated using the formula: TV=width^2×length/2.
At the end of the study, tumors were harvested and tumor growth inhibition (TGI) and tumor weight inhibition (IRTW) were calculated by the following equations, where V0 were the data at day 0 (D0) (starting day) and Vt were the data at measurement day t (Dt):
TGI=[1−(Vt−V0)drug treated/(Vt−V0)vehicle]×100%
IRTW(%)=[(TWvehicle−TWtreatment)/TWvehicle]×100%
Student's t-test was used for in comparison with vehicle control. Differences were considered statistically significant at P<0.05.

The mark [1] stands for this setting: 20 mg/kg bid oral, end of study.

Marks after values point to notes of the source that are not given here.

In the case of `Cc1cc2cc(Oc3ccnc(Nc4cccc(CS(=O)(=O)NCCN(C)C)c4)n3)ccc2[nH]1` [Compound A, N-(2-(dimethylamino)ethyl)-1-(3-((4-((2-methyl-1H-indol-5-yl)oxy)pyrimidin-2-yl)amino)phenyl)-methanesulfonamide], the IC50 with NCI-H716 cells turned out to be 159 nM. For the same compound, in the series on NCI-H716 tumor (setting [1]), the “IRTW (tumor weight inhibition)” value was 49.9* %. The “TGI (tumor growth inhibition)” value with NCI-H716 tumor (setting [1]) amounted to 57.1%; with NCI-H716 tumor (40 mg/kg bid oral, end of study), 73.9%; with NCI-H716 tumor (80 mg/kg bid oral, end of study), 80.0%. The “clinical signs of toxicity” value in the series with NCI-H716 tumor (treated mice, 20, 40 and 80 mg/kg bid oral) is listed as “No clinical signs of toxicity were observed”.

The values are drawn from US20180153890A1, “PHARMACEUTICAL COMPOSITIONS AND USE THEREOF” (Hutchison MediPharma Limited, priority 2015, published 2018).
